Data as given in ChEMBL document CHEMBL3885881, “DrugMatrix”.

Organism: Rattus norvegicus
Experiment: DrugMatrix - Regimen: Daily Repeat
Format: toxicity, organism-based, Sprague-Dawley
Parameters: regimen Daily Repeat, gender Male, age 6-8 weeks
Details: in vivo, iv, 34 mg/kg, dose level High, vehicle 100 % SALINE; for ABSOLUTE BASOPHIL / ABSOLUTE EOSINOPHIL / ABSOLUTE LYMPHOCYTE / ABSOLUTE MONOCYTE / ABSOLUTE SEGMENTED NEUTROPHIL / BASOPHIL / EOSINOPHIL / ERYTHROCYTE COUNT / HEMATOCRIT / HEMOGLOBIN / LEUKOCYTE COUNT / LYMPHOCYTE / MEAN CORPUSCULAR HEMOGLOBIN / MEAN CORPUSCULAR HEMOGLOBIN CONCENTRATION / MEAN CORPUSCULAR VOLUME / MONOCYTE / NEUTROPHIL / NUCLEATED RED BLOOD CELLS / PLATELET COUNT: tissue Blood; for ALANINE AMINOTRANSFERASE / ALBUMIN / ALKALINE PHOSPHATASE / ASPARTATE AMINOTRANSFERASE / BLOOD UREA NITROGEN / CARBON DIOXIDE / CHLORIDE / CHOLESTEROL / CREATINE PHOSPHOKINASE / CREATININE / GLUCOSE / LACTATE DEHYDROGENASE / LIPASE / PHOSPHORUS / POTASSIUM / SODIUM / TOTAL BILIRUBIN / TOTAL PROTEIN / URIC ACID: tissue Plasma

## CN[C@@H]1[C@@H](O)[C@@H](O[C@@H]2[C@@H](O)[C@H](O[C@H]3OC(CN)=CC[C@H]3N)[C@@H](N)C[C@H]2N)OC[C@]1(C)O [SISOMICIN]
72 h, time 3 day
  ABSOLUTE BASOPHIL: 0 CELLS/uL
  ABSOLUTE EOSINOPHIL: 0 CELLS/uL
  ABSOLUTE LYMPHOCYTE: 14608 CELLS/uL
  ABSOLUTE MONOCYTE: 68 CELLS/uL
  ABSOLUTE SEGMENTED NEUTROPHIL: 824 CELLS/uL
  BASOPHIL: 0%
  EOSINOPHIL: 0%
  ERYTHROCYTE COUNT: 5.47 x10E6/uL
  HEMATOCRIT: 35.6%
  HEMOGLOBIN: 14.07 G/DL
  LEUKOCYTE COUNT: 15.5 x10E3/uL
  LYMPHOCYTE: 94.67%
  MEAN CORPUSCULAR HEMOGLOBIN: 25.73 pg
  MEAN CORPUSCULAR HEMOGLOBIN CONCENTRATION: 39.53 G/DL
  MEAN CORPUSCULAR VOLUME: 65.13 fL
  MONOCYTE: 0.33%
  NEUTROPHIL: 5%
  NUCLEATED RED BLOOD CELLS: 0 /100WBC
  PLATELET COUNT: 1451.67 x10E3/uL
  ALANINE AMINOTRANSFERASE: 52.33 u/L
  ALBUMIN: 4.2 G/DL
  ALKALINE PHOSPHATASE: 295 u/L
  ASPARTATE AMINOTRANSFERASE: 81.67 u/L
  BLOOD UREA NITROGEN: 17.67 mg/dL
  CARBON DIOXIDE: 24 mmol/L
  CHLORIDE: 102.33 MEQ/L
  CHOLESTEROL: 66.33 mg/dL
  CREATINE PHOSPHOKINASE: 204.33 u/L
  CREATININE: 0.22 mg/dL
  GLUCOSE: 150.67 mg/dL
  LACTATE DEHYDROGENASE: 135.33 u/L
  LIPASE: 10.33 u/L
  PHOSPHORUS: 11.77 mg/dL
  POTASSIUM: 6.49 MEQ/L
  SODIUM: 144.2 MEQ/L
  TOTAL BILIRUBIN: 0.17 mg/dL
  TOTAL PROTEIN: 6 G/DL
  URIC ACID: 1.27 mg/dL
120 h, time 5 day
  ABSOLUTE BASOPHIL: 0 CELLS/uL
  ABSOLUTE EOSINOPHIL: 136 CELLS/uL
  ABSOLUTE LYMPHOCYTE: 16493.67 CELLS/uL
  ABSOLUTE MONOCYTE: 81 CELLS/uL
  ABSOLUTE SEGMENTED NEUTROPHIL: 1222.67 CELLS/uL
  BASOPHIL: 0%
  EOSINOPHIL: 1%
  ERYTHROCYTE COUNT: 5.67 x10E6/uL
  HEMATOCRIT: 37.07%
  HEMOGLOBIN: 14.6 G/DL
  LEUKOCYTE COUNT: 17.93 x10E3/uL
  LYMPHOCYTE: 92%
  MEAN CORPUSCULAR HEMOGLOBIN: 25.73 pg
  MEAN CORPUSCULAR HEMOGLOBIN CONCENTRATION: 39.43 G/DL
  MEAN CORPUSCULAR VOLUME: 65.3 fL
  MONOCYTE: 0.33%
  NEUTROPHIL: 6.67%
  NUCLEATED RED BLOOD CELLS: 0 /100WBC
  PLATELET COUNT: 1387.67 x10E3/uL
  ALANINE AMINOTRANSFERASE: 44 u/L
  ALBUMIN: 4.3 G/DL
  ALKALINE PHOSPHATASE: 391.67 u/L
  ASPARTATE AMINOTRANSFERASE: 71.67 u/L
  BLOOD UREA NITROGEN: 15.67 mg/dL
  CARBON DIOXIDE: 22.33 mmol/L
  CHLORIDE: 103.67 MEQ/L
  CHOLESTEROL: 57.33 mg/dL
  CREATINE PHOSPHOKINASE: 158 u/L
  CREATININE: 0.22 mg/dL
  GLUCOSE: 155 mg/dL
  LACTATE DEHYDROGENASE: 130.67 u/L
  LIPASE: 10 u/L
  PHOSPHORUS: 12.63 mg/dL
  POTASSIUM: 6.57 MEQ/L
  SODIUM: 145.93 MEQ/L
  TOTAL BILIRUBIN: 0.27 mg/dL
  TOTAL PROTEIN: 6.17 G/DL
  URIC ACID: 1.63 mg/dL
